Converted amounts (≈) assume the structure as drawn. Where two headings read alike, the source gives them in different places.
Legend:
Colo205 = assay: SRB assay, colon cancer cell growth inhibition; type: cell-based; conditions: Homo sapiens, COLO 205, 48 h
Description: (§1) A series of 4-phenyl-N-(thieno[2,3-b]pyrazin-3-yl)piperazine-1-carboxamides derivatives 7a–7i were tested for the colon cancer cell growth inhibition effect using the SRB assay (Table 2). […] Compounds 7a and 7b, containing chlorine at the C6 position of thieno[2,3-b]pyrazine ring, have weaker anticancer activity than its proton-containing derivatives 7c–7i. On the other hand, 7c has shown higher inhibition activity than 7d with methyl substituents at the C3 and C5 positions of the phenyl ring. […] Substitutions with one fluorine atom in the phenyl ring could not improve the inhibition effect of the compounds 7g–7h.
(§2) The HCT116, HCT8, KM12, HCT15, HT29, COLO-205, SW620 cell line was obtained from the National Cancer Institute (Material Transfer Agreement number: 2702–09). DLD1 cell line was obtained from the Korean cell line bank. Cells were cultured in complete Roswell Park Memorial Institute (RPMI) 1640 medium (Hyclone, South Logan, UT, USA) containing 10% fetal bovine serum (Hyclone, South Logan, UT, USA) in an atmosphere of 5% CO2 and 100% humidity at 37 °C. A small interfering RNA (siRNA) duplex targeting human c-Jun and FBXW7 (Genolution, Seoul, Korea) were introduced into cells using Lipofector-EXT (AptaBio, Yongin, Korea), according to the manufacturer’s instructions. As negative controls, cells were incubated with Lipofector-EXT (AptaBio, Yongin, KOR) and a negative siRNA (Genolution, Seoul, Korea).
(§3) Cells (100 μL containing 5000–10,000 cells/well) were incubated in 96 well microtiter plates. After 24 h, drugs were added (100 μL) to each well and the cultures were incubated for 48 h at 37 °C. The cells were then fixed in TCA (50 μL per well). The plates were incubated for a minimum of 1 h or a maximum of 3 h at 4 °C. The liquid was removed from the plate, which was then rinsed five times with water and allowed to dry at room temperature (rt) for approximately 12–24 h. The fixed cells were stained with 100 μL Sulforhodamine B (SRB) solution for 5 min at rt. After staining, the plate was washed three times with 1% glacial acetic acid and dried at rt for approximately 12–24 h. The SRB was then solubilized in 10 mM Tris buffer, and the absorbance was read at 515 nm. The effect of the drugs was expressed as GI50 (50% growth inhibition).

SW620 = assay: SRB assay, colon cancer cell growth inhibition; type: cell-based; conditions: Homo sapiens, SW-620, 48 h
Description: as §1, §2, §3

HT29 = assay: SRB assay, colon cancer cell growth inhibition; type: cell-based; conditions: Homo sapiens, HT-29, 48 h
Description: as §1, §2, §3

HCT15 = assay: SRB assay, colon cancer cell growth inhibition; type: cell-based; conditions: Homo sapiens, HCT-15, 48 h
Description: as §1, §2, §3

HCT116 = assay: SRB assay, colon cancer cell growth inhibition; type: cell-based; conditions: Homo sapiens, HCT-116; HCT116, SRB, 48 h
Description: as §1, §2, §3

KM12 = assay: SRB assay, colon cancer cell growth inhibition; type: cell-based; conditions: Homo sapiens, 48 h
Description: as §1, §2, §3

HCT8 = assay: SRB assay, colon cancer cell growth inhibition; type: cell-based; conditions: Homo sapiens, HCT-8, 48 h
Description: as §1, §2, §3

[1] = Pharmacokinetics in ICR mice; type: in vivo; conditions: mouse, plasma, 5 mg/kg
[2] = Maximum tolerated dose evaluation, 2 weeks; type: in vivo; conditions: 150 mg/kg oral administration, 2-week evaluation
logP determination = type: physicochemical
Excerpt: (§4) Table 4 Physicochemical Properties of the Lead Compounds 7c. | column: 7c

Solubility (logS) = type: physicochemical; conditions: for solubility: thermodynamic from solid, read-out: Solubility (logS) Equilibrium (converted)
Excerpt: as §4

Permeability = type: in vitro ADME
Excerpt: as §4

[3] = Pharmacokinetics in SD rats; type: in vivo; conditions: male, Sprague-Dawley, rat, plasma
Description: Sprague–Dawley rats (adult males, 250–300 g) were fasted overnight, and the femoral vein (for iv administration of the compound) and jugular vein (for blood sampling) of each rat were cannulated with polyethylene tubing. The selected compounds dissolved in 30% polyethylene glycol (PEG) in saline were administered either intravenously or orally. At various time points after administration, blood samples (0.5 mL) were collected from the jugular vein, transferred to heparin-coated tubes, centrifuged to separate off the plasma. The plasma was stored at −80 °C until assayed. Compound concentrations in plasma were determined by LC/MS/MS analysis (API4000 mass spectrometer, Applied Biosystem, Waltham, MA, USA). Pharmacokinetic parameters were analyzed using the WinNonlin software program. The area under the curve (AUC) was calculated using the trapezoidal rule extrapolated to infinity. The terminal elimination half-life, systemic clearance, and volume of distribution at steady state were determined. The extent of absolute oral bioavailability (F) was estimated by comparing the AUC values after intravenous and oral administration of the compounds.

`COc1cc(OC)cc(N2CCN(C(=O)Nc3nc4sccc4nc3OC)CC2)c1` [Compound 7c, 4-(3,5-Dimethoxyphenyl)-N-(2-methoxythieno[2,3-b]pyrazin-3-yl)piperazine-1-carboxamide] gave a GI50 (Colo205) of 24 nM, a GI50 (SW620) of 27 nM and a GI50 (HT29) of 17 nM. The GI50 (HCT15) was 26 nM, the GI50 (HCT116) was 12 nM and the GI50 (KM12) was 8 nM. It also gave a GI50 (HCT8) of 54 nM, an AUC(0-inf) ([1]; IV) of 16600 ng·h/mL and an AUC(0-t) ([1]; IV) of 16400 ng·h/mL. It also gave a clearance ([1]; IV) of 5.08 mL/min/kg, a half-life ([1]; IV) of 2.98 h and an AUC(0-inf) ([1]; PO) of 2340 ng·h/mL. For the same compound, the AUC(0-t) ([1]; PO) was 2260 ng·h/mL, the Cmax ([1]; PO) was 798 ng/mL and the Tmax ([1]; PO) was 0.667 h. For the same compound, the bioavailability ([1]; PO) was 13.8%, the half-life ([1]; PO) was 5.2 h and the body weight [2] was “no loss of body weight”. For the same compound, the logP (logP determination) was 2.63, the solubility (Solubility (logS); pH 2, aqueous buffer, pH2.0) was 2090 µM (≈ 897 µg/mL) and the solubility kinetic (Solubility (logS); pH 7.4, aqueous buffer, kinetic from dmso stock, pH7.4) was 741 µM (≈ 318 µg/mL). The solubility (Solubility (logS); pH 7.4, aqueous buffer, pH7.4) was 603 µM (≈ 259 µg/mL), the solubility (Solubility (logS); pH 9, aqueous buffer, pH9.0) was 617 µM (≈ 265 µg/mL) and the “Permeability Class” value (Permeability) was “High”. The Papp (Permeability; PAMPA, read-out: Permeability Pe) was 29.5 ×10⁻⁶ cm/s, the AUC(0-inf) ([3]; SD rats, IV, 1 mg/kg) was 708 ng·h/mL and the AUC(0-t) ([3]; SD rats, IV, 1 mg/kg) was 703 ng·h/mL. The Cmax ([3]; SD rats, IV, 1 mg/kg) was 551 ng/mL, the Tmax ([3]; SD rats, IV, 1 mg/kg) was 0.083 h and the clearance ([3]; SD rats, IV, 1 mg/kg) was 25.2 mL/min/kg. For the same compound, the half-life ([3]; SD rats, IV, 1 mg/kg) was 1.11 h, the Vd ([3]; SD rats, IV, 1 mg/kg, read-out: Vss) was 2.31 L/kg and the AUC(0-inf) ([3]; SD rats, PO, 5 mg/kg) was 964 ng·h/mL. The AUC(0-t) ([3]; SD rats, PO, 5 mg/kg) was 707 ng·h/mL, the Cmax ([3]; SD rats, PO, 5 mg/kg) was 76 ng/mL and the Tmax ([3]; SD rats, PO, 5 mg/kg) was 4.05 h. For the same compound, the half-life ([3]; SD rats, PO, 5 mg/kg) was 7.5 h, the bioavailability ([3]; SD rats, PO, 5 mg/kg, read-out: F) was 20.1% and the Cmax ([3]; no unit, species or route stated in b12 (7c value equals SD rats PO of Table 3)) was 76 ng/mL. It also gave a bioavailability ([3]; species and route not stated in b12 (7c value equals SD rats PO of Table 3), read-out: bioavailability (F)) of 20.1%.
